Experimental data reported in patent US7432095B2, “Formate dehydrogenase tolerant to halogen compounds and process for producing the same” (Kaneka Corporation, priority 2001, dated 2008).
Read-outs that look alike come from different tables or passages of the source.

Key:
[1] = tested on: KNK65MA FDH (formate dehydrogenase); assay: Haloketone tolerance: residual FDH activity of cell-free extract after standing with haloketone; assay type: biochemical, Thiobacillus sp. KNK65MA; details: 30° C.
[2] = tested on: FDH derived from the KNK607 strain; assay: as above; assay type: biochemical; details: 30° C.
Candida boidinii FDH = biological target: T1, Candida boidinii FDH (Candida boidinii, UniProt O13437); assay: biochemical
T1 sequence (O13437 1-364): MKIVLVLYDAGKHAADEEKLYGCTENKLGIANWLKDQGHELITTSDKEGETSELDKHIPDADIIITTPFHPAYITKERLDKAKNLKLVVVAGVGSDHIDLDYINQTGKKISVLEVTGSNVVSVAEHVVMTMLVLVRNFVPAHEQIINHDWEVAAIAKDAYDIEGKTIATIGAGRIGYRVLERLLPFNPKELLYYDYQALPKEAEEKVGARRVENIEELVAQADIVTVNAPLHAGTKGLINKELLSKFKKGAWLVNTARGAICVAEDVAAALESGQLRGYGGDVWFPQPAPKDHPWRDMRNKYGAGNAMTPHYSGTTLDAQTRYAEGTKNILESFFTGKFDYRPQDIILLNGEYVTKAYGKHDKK

[3] = Formate dehydrogenase activity assay (NADH formation, absorbance at 340 nm) of the purified enzyme; assay type: biochemical, Thiobacillus sp. KNK65MA; details: for Specific activity: 0.1 M phosphate buffer pH 7, 500 mM sodium formate, 5 mM NAD
Method: In the present invention, the formate dehydrogenase activity of the polypeptide is assayed by quantitating the increase in absorbance at 340 nm resulting from the production of NADH at 30° C. or 40° C. in a 0.1 M phosphate buffer (pH 7) containing 500 mM sodium formate and 5 mM NAD.
The molecular weight determination is by gel permeation chromatography. The Km value for formate is determined by measuring the activity under the above conditions of activity assay (30° C., NAD 5 mM) while the concentration of sodium formate is varied, and the Km value for NAD is determined under the above conditions of activity assay (30° C., sodium formate 500 mM) while the concentration of NAD is varied. […]
The activity of the formate dehydrogenase obtained was assayed by quantitating the increase in absorbance at 340 nm resulting from formation of NADH in 0.1 M phosphate buffer (pH 7) containing 500 mM sodium formate and 5 mM NAD at 30° C. or 40° C. In this connection, the amount of the enzyme yielding […] of NADH in 1 minute was defined as 1 unit. Protein assay was performed by the method of Lowry using BSA as standard protein. The specific activity of the purified formate dehydrogenase was 7.6 u/mg protein (30° C.) or 13.3 μ/mg protein (40° C.)
The Km values for formate and NAD were determined as follows. Thus, the Km value for formate was determined by measuring the activity with the concentration of sodium formate varied under the above specific activity assay conditions (30° C., NAD 5 mM) and the Km value for NAD was determined by measuring the activity with the concentration of NAD varied under the above specific activity assay conditions (30° C., sodium formate 500 mM). In FIG. 3 and FIG. 4, V represents the reaction velocity of the enzyme, S represents the concentration of the substrate, and the intercept of the abscissa represents −1/Km. […]

[4] = tested on: ethyl 4-chloroacetoacetate reduction system (NAD regeneration); assay: Coenzyme regeneration in the enzymatic reduction system of ethyl 4-chloroacetoacetate; assay type: biochemical; details: 6 g ethyl 4-chloroacetoacetate in 60 ml, butyl acetate/water, pH 6.5, 30° C., 3.5 hours, reductase from HB101 (pNTS1M1)
Method: Escherichia coli HB101 (pFT002) expressing the KNK65MA-derived FDH as acquired in Example 7 and Escherichia coli HB101 (pFA002) expressing KNK607-derived FDH (WO 02/46427) were respectively inoculated into 60 ml of the liquid medium shown in Table 5 sterilized in a 500 ml Sakaguchi flask and shake-cultured at 37° C. for 9 hours. The resulting culture medium was inoculated into 100 ml of the liquid medium shown in Table 5 sterilized in a 500 ml Sakaguchi flask in size of 1% and shake-cultured at 37° C. for 46 hours. The resulting culture medium was centrifugally concentrated 5-fold and sonicated to give an FDH enzyme solution. On the other hand, for use as the reductase enzyme for reducing a 4-haloacetoacetate, the recombinant Escherichia coli HB101 (pNTS1M1)(FERM BP-8059) was inoculated into 100 ml of the medium shown in Table 5 sterilized in a 500 ml Sakaguchi flask, shake-cultured at 37° C. for 23 hours, and concentrated 10-fold and the cells were disrupted. […] After completion of the reaction, the reaction mixture was extracted with butyl acetate and the extract was analyzed. […]
The quantitation of ethyl 4-chloro-3-hydroxybutyrate was carried out by gas chromatography. […]

[5] = KNK65MA FDH extract, haloketone 20 mM added 1:1, 5 hours, untreated extract = 100%
[6] = KNK607 FDH extract, haloketone 20 mM added 1:1, 5 hours, untreated extract = 100%
[7] = Candida boidinii FDH extract, haloketone 20 mM added 1:1, 30° C., 5 hours, untreated extract = 100%, read-out: Residual FDH activity (%)
[8] = […], haloketone 20 mM added 1:1, 5 hours, […]
[9] = […], haloketone 20 mM added 1:1, 30° C., 5 hours, […], read-out: Residual FDH activity (%)
[10] = […], haloketone 20 mM added 1:1, 28.5 hours, […]

In the case of CC(C)(C)OC(=O)N[C@@H](Cc1ccccc1)C(=O)CCl [1,1-dimethylethyl [(1S)-3-chloro-2-oxo-1-(phenylmethyl)propyl]carbamate], the “Residual FDH activity (%)” value ([1]; KNK65MA FDH extract, haloketone 2 mM added 1:1, 5 hours, untreated extract = 100%) is reported as 100.0%, the “Residual FDH activity (%)” value ([2]; KNK607 FDH extract, haloketone 2 mM added 1:1, 5 hours, untreated extract = 100%) is reported as 81.6% and the remaining activity at 2000 µM (Candida boidinii FDH; Candida boidinii FDH extract, haloketone 2 mM added 1:1, 30° C., 5 hours, untreated extract = 100%, read-out: Residual FDH activity (%)) is reported as 31.3%.

In the case of O=C(CCl)COC(=O)c1ccccc1 [1-(Benzoyloxy)-3-chloro-2-propanone, 1-(benzoyloxy)-3-chloro-2-propanone], the “Residual FDH activity (%)” value ([1]; KNK65MA FDH extract, haloketone 10 mM added 1:1, 5 hours, untreated extract = 100%) is reported as 100.7%, the “Residual FDH activity (%)” value ([2]; KNK607 FDH extract, haloketone 10 mM added 1:1, 5 hours, untreated extract = 100%) is reported as 1.6% and the remaining activity at 10000 µM (Candida boidinii FDH; Candida boidinii FDH extract, haloketone 10 mM added 1:1, 30° C., 5 hours, untreated extract = 100%, read-out: Residual FDH activity (%)) is reported as 4.5%.

With O=C(CO)CCl [1-Chloro-3-hydroxy-2-propanone, 1-chloro-3-hydroxy-2-propanone] the “Residual FDH activity (%)” value [1, 5] was 80.1%, the “Residual FDH activity (%)” value [2, 6] was 11.7% and the remaining activity at 20000 µM (Candida boidinii FDH; [7]) was 14.7%.

With O=C(CCl)c1cccc(Cl)c1 [2,3′-Dichloroacetophenone, 2,3′-dichloroacetophenone] the “Residual FDH activity (%)” value [1, 8] was 97.9%, the “Residual FDH activity (%)” value [2, 8] was 27.0% and the remaining activity at 20000 µM (Candida boidinii FDH; [9]) was 7.4%.

For O=C(CCl)c1cccnc1 [2-Chloro-1-(3-pyridinyl)ethanone, 2-chloro-1-(3-pyridinyl)ethanone], the “Residual FDH activity (%)” value [1, 8] was 90.1%, the “Residual FDH activity (%)” value [2, 8] was 6.1% and the remaining activity at 20000 µM (Candida boidinii FDH; [9]) was 1.5%.

For O=C(CCl)c1ccccc1 [2-Chloroacetophenone, 2-chloroacetophenone], the “Residual FDH activity (%)” value [1, 10] was 100.7%, the “Residual FDH activity (%)” value [2, 10] was 100.0% and the remaining activity at 20000 µM (Candida boidinii FDH; 28.5 h, read-out: Residual FDH activity (%)) was 29.4%.

With CCOC(=O)C(Cl)C(C)=O (centres unmarked) [Ethyl2-chloroacetoacetate, ethyl 2-chloroacetoacetate] the “Residual FDH activity (%)” value [1, 8] was 100.0%, the “Residual FDH activity (%)” value [2, 8] was 2.5% and the remaining activity at 20000 µM (Candida boidinii FDH; [9]) was 5.4%.

With CCOC(=O)CC(=O)CBr [Ethyl4-bromoacetoacetate, ethyl 4-bromoacetoacetate] the “Residual FDH activity (%)” value [1, 5] was 24.1%, the “Residual FDH activity (%)” value [2, 6] was 0.0% and the remaining activity at 20000 µM (Candida boidinii FDH; [7]) was 0%.

For CCOC(=O)CC(=O)CCl [Ethyl4-chloroacetoacetate, ethyl 4-chloroacetoacetate], the “Residual FDH activity (%)” value [1, 8] was 100.7%, the “Residual FDH activity (%)” value [2, 8] was 20.1% and the remaining activity at 20000 µM (Candida boidinii FDH; [9]) was 14.3%.

With CCOC(=O)CC(=O)CI [Ethyl4-iodoacetoacetate, ethyl 4-iodoacetoacetate] the “Residual FDH activity (%)” value [1, 5] was 12.1%, the “Residual FDH activity (%)” value [2, 6] was 0.0% and the remaining activity at 20000 µM (Candida boidinii FDH; [7]) was 0%.

With COC(=O)CC(=O)CCl [Methyl4-chloroacetoacetate, methyl 4-chloroacetoacetate] the “Residual FDH activity (%)” value [1, 8] was 100.0%, the “Residual FDH activity (%)” value [2, 8] was 13.1% and the remaining activity at 20000 µM (Candida boidinii FDH; [9]) was 14.9%.

With chloroacetone the “Residual FDH activity (%)” value ([1]; 5 hours) was 100.0%, the “Residual FDH activity (%)” value ([2]; 5 hours) was 46.2% and the “Residual FDH activity (%)” value (Candida boidinii FDH; 30° C., 5 hours) was 38.2%.

B1: FDH derived from KNK65MA: Haloketone-tolerant NAD-dependent formate dehydrogenase from Thiobacillus sp. KNK65MA, amino acid sequence SEQ ID NO:1 (protein, listed as Thiobacillus sp.)
chain: MAKILCVLYDDPVDGYPKTYARDDLPKIDHYPGGQTLPTPKAIDFTPGQLLGSVSGELGLRKYLEANGHTFVVTSDKDGPDSVFEKELVDADVVISQPFWPAYLTPERIAKAKNLKLALTAGIGSDHVDLQSAIDRGITVAEVTYCNSISVAEHVVMMILGLVRNYIPSHDWARKGGWNIADCVEHSYDLEGMTVGSVAAGRIGLAVLRRLAPFDVKLHYTDRHRLPEAVEKELGLVWHDTREDMYPHCDVVTLNVPLHPETEHMINDETLKLFKRGAYIVNTARGKLADRDAIVRAIESGQLAGYAGDVWFPQPAPKDHPWRTMKWEGMTPHISGTSLSAQARYAAGTREILECFFEGRPIRDEYLIVQGGALAGTGAHSYSKGNATGGSEEAAKFKKAG
With B1 the Km ([3]; 30° C., NAD 5 mM, sodium formate varied, read-out: Km value for formate) was 1600 µM, the Km ([3]; 30° C., sodium formate 500 mM, NAD varied, read-out: Km value for NAD) was 48 µM and the Specific activity ([3]; 30° C.) was 7.6 u/mg protein. The Specific activity ([3]; 40° C.) was 13.3 μ/mg protein and the “Conversion rate to ethyl 4-chloro-3-hydroxybutyrate” value [4] was 100%.
